According to ChEMBL document CHEMBL1201862, “PubChem BioAssay data set” (2004):
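Values below derive from 48-hour exposures of cells grown in 96-well plates, with endpoints linearly interpolated between the two concentrations bracketing the appropriate inhibition level. At the GI50, growth is halved.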 Calls of active or inactive are those of the source. Rule as the data show it: active = GI50 up to about 1.1 µM and inactive = higher.

Columns and labels:
Test in all cases: NCI tumour cell line growth inhibition, 48 h
IGROV-1 = test system: IGROV-1
HT-29 = test system: HT-29
UACC-62 = test system: UACC-62
MOLT-4 = test system: MOLT-4
NCI-H226 = test system: NCI-H226
NCI-H460 = test system: NCI-H460
OVCAR-3 = test system: OVCAR-3
SR = test system: SR
KM12 = test system: KM12
HCC 2998 = test system: HCC 2998
MDA-MB-435 = test system: MDA-MB-435
OVCAR-8 = test system: OVCAR-8
SF-268 = test system: SF-268
A549 = test system: A549
UO-31 = test system: UO-31
T47D = test system: T47D
TK-10 = test system: TK-10
SNB-19 = test system: SNB-19
SK-MEL-2 = test system: SK-MEL-2
M14 = test system: M14

SMILES	GI50 (IGROV-1)	GI50 (HT-29)	GI50 (UACC-62)	GI50 (MOLT-4)	GI50 (NCI-H226)	GI50 (NCI-H460)	GI50 (OVCAR-3)	GI50 (SR)	GI50 (KM12)	GI50 (HCC 2998)	GI50 (MDA-MB-435)	GI50 (OVCAR-8)	GI50 (SF-268)	GI50 (A549)	GI50 (UO-31)	GI50 (T47D)	GI50 (TK-10)	GI50 (SNB-19)	GI50 (SK-MEL-2)	GI50 (M14)
Cc1cc(N2CCCCC2)nc2ccc(Cc3ccc4nc(N5CCCCC5)cc(C)c4c3)cc12	> 100 µM (inactive)	23.6 µM (inactive)	> 100 µM (inactive)	> 100 µM (inactive)	> 100 µM (inactive)	> 100 µM (inactive)	> 100 µM (inactive)	24.2 µM (inactive)	> 100 µM (inactive)	22.8 µM (inactive)	> 100 µM (inactive)	> 100 µM (inactive)	> 100 µM (inactive)	> 100 µM (inactive)	> 100 µM (inactive)	60.7 µM (inactive)	> 100 µM (inactive)	> 100 µM (inactive)	> 100 µM (inactive)	> 100 µM (inactive)
CCN(CC)CCn1c(=O)c2ccccc2n2c3c(=O)n(C)c(=O)n(C)c3nc12	2.11 µM (inactive)	2.2 µM (inactive)	0.762 µM (active)	0.239 µM (active)	1.16 µM (inactive)	0.148 µM (active)	4.06 µM (inactive)	0.177 µM (active)	1.77 µM (inactive)	1.93 µM (inactive)	4.71 µM (inactive)	1.84 µM (inactive)	2.07 µM (inactive)	0.321 µM (active)	2.11 µM (inactive)	2.15 µM (inactive)	19.6 µM (inactive)	2.38 µM (inactive)	2.82 µM (inactive)	3.16 µM (inactive)
FC(F)(F)C1(c2ccccc2)SCc2nc3ccccc3n21 (stereo not given)	> 100 µM (inactive)	62.5 µM (inactive)	> 100 µM (inactive)	61.7 µM (inactive)	> 100 µM (inactive)	80.9 µM (inactive)	> 100 µM (inactive)	35.2 µM (inactive)	> 100 µM (inactive)	> 100 µM (inactive)	40.6 µM (inactive)	> 100 µM (inactive)	> 100 µM (inactive)	> 100 µM (inactive)	55.5 µM (inactive)	62.8 µM (inactive)	> 100 µM (inactive)	> 100 µM (inactive)	> 100 µM (inactive)	> 100 µM (inactive)
